Test results reported in BindingDB's records for doi:10.1021/cb100060v (Binghamton University, 2010).

These molecules were tested against T1, Tubulin--tyrosine ligase (Homo sapiens, UniProt Q8NG68) (assay: [3H]-Tyr Incorporation Assay). Conditions: pH 6.8; 37 °C.
T1 sequence (Q8NG68 whole entry): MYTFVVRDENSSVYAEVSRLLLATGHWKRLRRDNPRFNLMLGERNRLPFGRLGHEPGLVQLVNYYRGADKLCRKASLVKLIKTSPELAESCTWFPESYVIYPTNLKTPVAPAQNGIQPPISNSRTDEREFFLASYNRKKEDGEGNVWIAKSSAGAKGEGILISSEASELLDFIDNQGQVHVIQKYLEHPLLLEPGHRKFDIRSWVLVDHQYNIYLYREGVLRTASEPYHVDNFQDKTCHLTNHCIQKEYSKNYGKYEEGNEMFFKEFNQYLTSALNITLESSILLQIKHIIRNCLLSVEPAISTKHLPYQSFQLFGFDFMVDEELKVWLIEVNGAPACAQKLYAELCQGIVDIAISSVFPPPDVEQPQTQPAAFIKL
Excerpt: Inhibition of [3H]-L-tyrosine incorporation into tubulin by enzyme tubulin tyrosine ligase (TTL).
With `[N-]=[N+]=Nc1cc(CC(N)C(=O)O)ccc1O` (stereo not drawn) [3-Azidotyrosine] the Ki was 200 µM.
Molecule `NC(Cc1ccc(O)c(C=O)c1)C(=O)O` (stereo not drawn) [3-Formyltyrosine] has a Ki of 300 µM.
With `Nc1ccc(CC(N)C(=O)O)cc1` (stereo not drawn) [4-Aminophenylalanine] the Ki was greater than 4000 µM.
